Patent US20240158446A1, “CYCLIC COMPOUND HAVING SELECTIVE INHIBITORY ACTION ON KRAS OVER HRAS AND NRAS” (CHUGAI SEIYAKU KABUSHIKI KAISHA, priority 2021, published 2024)
Like-named read-outs stand apart in the source and are kept apart here. Where a SMILES comes first, the peptide text is derived from it. Bridges are numbered along the chain shown (N, C = ends). [ ]: non-standard residue; d: D form. The star is where a group is joined. hPhe(3-Cl-4-CF3) = N[C@@H](CCc1ccc(C(F)(F)F)c(Cl)c1)C(=O)O; NPrPhe(4-CF3) = CCCN[C@@H](Cc1ccc(C(F)(F)F)cc1)C(=O)O; NMeGly(cPent) = CN[C@H](C(=O)O)C1CCCC1; Pro(4,4-F2) = O=C(O)[C@@H]1CC(F)(F)CN1; Pro(4S-Me) = C[C@@H]1CN[C@H](C(=O)O)C1; NMeGly(cBu) = CN[C@H](C(=O)O)C1CCC1; NMeD = CN[C@@H](CC(=O)O)C(=O)O; NMeL = CN[C@@H](CC(C)C)C(=O)O; Morpholide = C1CN(*)CCO1; NMeA = CN[C@@H](C)C(=O)O; Ac5c = NC1(C(=O)O)CCCC1; Aze = O=C(O)[C@@H]1CCN1; Sar = CNCC(=O)O

Tests used:
[1] = biological target: GDP-bound HRAS wild-type protein (Homo sapiens, UniProt P01112); assay: Binding to HRAS by surface plasmon resonance (SPR), Single Cycle Kinetics; details: SPR, GDP-bound HRAS wild-type protein vs GDP-bound KRAS wild-type protein
[2] = biological target: GDP-bound KRAS wild-type protein (Homo sapiens, UniProt P01116); assay: Binding to KRAS by surface plasmon resonance (SPR), Single Cycle Kinetics; details: GDP-bound KRAS wild-type protein, read-out: KRAS KD
[3] = biological target: GDP-bound NRAS wild-type protein (Homo sapiens, UniProt P01111); assay: Binding to NRAS by surface plasmon resonance (SPR), Single Cycle Kinetics; details: SPR, GDP-bound NRAS wild-type protein vs GDP-bound KRAS wild-type protein
[4] = SPR Single Cycle Kinetics, 1:1 binding model
[5] = SPR, Single Cycle Kinetics, 1:1 binding model

GDP-bound NRAS wild-type protein, sequence (P01111 whole entry): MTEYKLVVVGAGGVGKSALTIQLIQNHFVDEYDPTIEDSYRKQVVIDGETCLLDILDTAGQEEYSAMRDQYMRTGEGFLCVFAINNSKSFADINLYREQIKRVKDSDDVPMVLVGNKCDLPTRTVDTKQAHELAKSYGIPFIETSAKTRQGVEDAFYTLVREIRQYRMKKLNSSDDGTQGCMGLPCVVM
GDP-bound KRAS wild-type protein, sequence (P01116 whole entry): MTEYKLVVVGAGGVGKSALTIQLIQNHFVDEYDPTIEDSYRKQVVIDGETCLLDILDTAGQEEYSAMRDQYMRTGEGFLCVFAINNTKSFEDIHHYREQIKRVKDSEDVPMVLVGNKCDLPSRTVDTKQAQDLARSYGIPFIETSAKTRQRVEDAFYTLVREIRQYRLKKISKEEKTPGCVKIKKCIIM
GDP-bound HRAS wild-type protein, sequence (P01112 whole entry): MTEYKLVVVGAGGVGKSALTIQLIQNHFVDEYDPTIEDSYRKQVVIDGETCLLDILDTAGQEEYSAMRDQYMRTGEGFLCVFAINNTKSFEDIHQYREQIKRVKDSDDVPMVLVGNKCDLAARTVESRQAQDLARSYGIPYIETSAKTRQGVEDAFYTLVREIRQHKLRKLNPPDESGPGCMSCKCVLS

| Kd ([2]; SPR, Single Cycle Kinetics) [nM] | SMILES | HRAS/KRAS (ratio of KD value for HRAS to KD value for KRAS) [1] | NRAS/KRAS (ratio of KD value for NRAS to KD value for KRAS) [3] | other results |
| --- | --- | --- | --- | --- |
| 0.81 | CCC[C@H]1C(=O)N[C@@H](C(CC)CC)C(=O)N(C)CC(=O)N(C)[C@H]2C/C=C\CCN(C2=O)[C@@H](Cc2ccc(C)cc2)C(=O)N(C)CC(=O)N[C@@H](CCc2ccc(C(F)(F)F)c(Cl)c2)C(=O)N2C[C@H](OCC)C[C@H]2C(=O)NC2(CC(C)(C)C2)C(=O)N(C)[C@@H](C2CCCC2)C(=O)N(C)[C@H](C(=O)N(C)C)CC(=O)N1C [PP2209] | A (a compound having 10 or more and less than 20 is denoted as A) | A (a compound having 10 or more and less than 20 is denoted as A) | – |
| 0.12 | CCO[C@@H]1C[C@H]2C(=O)NC3(CC(C)(C)C3)C(=O)N(C)[C@@H](C3CCCC3)C(=O)N(C)[C@H](C(=O)N(C)CC)CC(=O)N(C)[C@H]3CCCCCc4ccc(cc4)C[C@@H](C(=O)N(C)CC(=O)N[C@@H](CCc4ccc(C(F)(F)F)c(OC)c4)C(=O)N2C1)N1CC/C=C\C[C@@H](C1=O)N(C)C(=O)CN(C)C(=O)[C@H]([C@@H](C)CC)NC3=O [PP2259] | B (a compound having 3 or more and less than 10 is denoted as B) | A (a compound having 10 or more and less than 20 is denoted as A) | – |
| 0.33 | CCC[C@H]1C(=O)N[C@@H]([C@@H](C)CC)C(=O)N(C2CC2)CC(=O)N(C)[C@H]2C/C=C\CCN(C2=O)[C@@H](Cc2ccc(C)cc2)C(=O)N(C)CC(=O)N[C@@H](CCc2cc(F)c(C(F)(F)F)c(F)c2)C(=O)N2C[C@H](OCC)C[C@H]2C(=O)NC2(CC(C)(C)C2)C(=O)N(C)[C@@H](C2CCCC2)C(=O)N(C)[C@H](C(=O)N(C)C)CC(=O)N1C [PP2093, (2S,8S,12R,14S,20S,23S,27S,30S,36S,38Z)-20-cyclopentyl-32-cyclopropyl-8-[2-[3,5-difluoro-4-(trifluoromethyl)phenyl]ethyl]-12-ethoxy-N,N,3′,3′,4,19,22,26,35-nonamethyl-30-[(1S)-1-methylpropyl]-3,6,9,15,18,21,25,28,31,34,42-undecaoxo-27-propyl-2-(p-tolylmethyl)spiro[1,4,7,10,16,19,22,26,29,32,35-undecazatricyclo[34.5.1.0^10,14]dotetracont-38-ene-17,1′-cyclobutane]-23-carboxamide] | A (a compound having 10 or more and less than 20 is denoted as A) | A (a compound having 10 or more and less than 20 is denoted as A) | – |
| 0.33 | CCC[C@H]1C(=O)N[C@@H]([C@@H](C)CC)C(=O)N(C)CC(=O)N(C)[C@H]2C/C=C\CCN(C2=O)[C@@H](Cc2ccc(C)cc2)C(=O)N(C)CC(=O)N[C@@H](CCc2ccc(C(F)(F)F)c(Cl)c2)C(=O)N2C[C@H](OCC)C[C@H]2C(=O)NC2(CC(C)(C)C2)C(=O)N(C)[C@@H](C(CC)CC)C(=O)N(C)[C@H](C(=O)N(C)C)CC(=O)N1C [PP2146] | A (a compound having 10 or more and less than 20 is denoted as A) | A (a compound having 10 or more and less than 20 is denoted as A) | – |

Continued, compound first:

| SMILES | Kd ([2]; SPR, Single Cycle Kinetics) [nM] | HRAS/KRAS (ratio of KD value for HRAS to KD value for KRAS) [1] | NRAS/KRAS (ratio of KD value for NRAS to KD value for KRAS) [3] | other results |
| --- | --- | --- | --- | --- |
| CCCN1C(=O)[C@@H]2CCN2C(=O)CN(C)C(=O)[C@H]([C@@H](C)CC)NC(=O)[C@H](CC(C)C)N(C)C(=O)C[C@@H](C(=O)N2CCOCC2)N(C)C(=O)[C@H](C2CCCC2)N(C)C(=O)C2(CCCC2)NC(=O)[C@@H]2C[C@H](C)CN2C(=O)[C@H](CCc2ccc(C(F)(F)F)c(Cl)c2)NC(=O)CN(C)C(=O)[C@@H]1Cc1ccc(C(F)(F)F)cc1 [PP0457] ([NMeL]I[Sar][Aze][NPrPhe(4-CF3)][Sar][hPhe(3-Cl-4-CF3)][Pro(4S-Me)][Ac5c][NMeGly(cPent)][NMeD]-Morpholide; lactam N-11) | – | – | – | HRAS/KRAS (ratio of KD value with respect to HRAS to KD value with respect to KRAS) [1]: B (a compound having 3 or more and less than 10 is denoted as B); Kd [2, 4]: 0.083 nM; NRAS/KRAS (ratio of KD value with respect to NRAS to KD value with respect to KRAS) [3]: C (A compound having a KD ratio of 0.1 or more and less than 3 is denoted as C) |
| CCO[C@@H]1C[C@H]2C(=O)NC3(CCC3)C(=O)N(C)[C@@H](C3CCCC3)C(=O)N(C)[C@H](C(=O)N(C)CC)CC(=O)N(C)[C@@H](CC(C)C)C(=O)N[C@@H]([C@@H](C)CC)C(=O)N(C)CC(=O)N(C)[C@H]3C/C=C\CCN(C3=O)[C@@H](Cc3ccc(C(F)(F)F)cc3)C(=O)N(C)CC(=O)N[C@@H](CCc3cc(F)c(C(F)(F)F)c(F)c3)C(=O)N2C1 [PP1300, (2S,8S,12R,14S,20S,23S,27S,30S,36S,38Z)-20-cyclopentyl-8-[2-[3,5-difluoro-4-(trifluoromethyl)phenyl]ethyl]-12-ethoxy-N-ethyl-27-isobutyl-N,4,19,22,26,32,35-heptamethyl-30-[(1S)-1-methylpropyl]-3,6,9,15,18,21,25,28,31,34,42-undecaoxo-2-[[4-(trifluoromethyl)phenyl]methyl]spiro[1,4,7,10,16,19,22,26,29,32,35-undecazatricyclo[34.5.1.0^10,14]dotetracont-38-ene-17,1′-cyclobutane]-23-carboxamide] | – | – | – | HRAS/KRAS (ratio of KD value for HRAS to KD value for KRAS) ([1]; KD ratio class): A (a compound having 10 or more and less than 20 is denoted as A); Kd [2, 5]: 0.082 nM; NRAS/KRAS (ratio of KD value for NRAS to KD value for KRAS) ([3]; KD ratio class): A (a compound having 10 or more and less than 20 is denoted as A) |
| CCO[C@@H]1C[C@H]2C(=O)NC3(CCC3)C(=O)N(C)[C@@H](C(CC)CC)C(=O)N(C)[C@H](C(=O)N(C)CCOC)CC(=O)N(C)[C@@H](CC)C(=O)N[C@@H]([C@@H](C)CC)C(=O)N(C)CC(=O)N(C)[C@H]3C/C=C\CCN(C3=O)[C@@H](Cc3ccc(C(F)(F)F)cc3)C(=O)N(C)CC(=O)N[C@@H](CCc3cc(F)c(C(F)(F)F)c(F)c3)C(=O)N2C1 [PP1330] | – | – | – | HRAS/KRAS (ratio of KD value for HRAS to KD value for KRAS) ([1]; KD ratio class): A (a compound having 10 or more and less than 20 is denoted as A); Kd [2, 5]: 0.42 nM; NRAS/KRAS (ratio of KD value for NRAS to KD value for KRAS) ([3]; KD ratio class): AA (a compound having 20 or more is denoted as AA) |
| CCCN1C(=O)[C@@H]2CCN2C(=O)CN(C)C(=O)[C@H]([C@@H](C)CC)NC(=O)[C@H](CC(C)C)N(C)C(=O)C[C@@H](C(=O)N(C)C)NC(=O)[C@H](C2CCCC2)N(C)C(=O)C2(CCCC2)NC(=O)[C@@H]2CC(F)(F)CN2C(=O)[C@H](CCc2ccc(C(F)(F)F)c(Cl)c2)NC(=O)CN(C)C(=O)[C@@H]1Cc1ccc(C(F)(F)F)cc1 [PP0387] ([NMeL]I[Sar][Aze][NPrPhe(4-CF3)][Sar][hPhe(3-Cl-4-CF3)][Pro(4,4-F2)][Ac5c][NMeGly(cPent)]D-NMe2; lactam N-11) | – | B (a compound having 3 or more and less than 10 is denoted as B) | C (A compound having a KD ratio of 0.1 or more and less than 3 is denoted as C) | Kd [2, 4]: 0.54 nM |
| CCO[C@@H]1C[C@H]2C(=O)NC3(CCC3)C(=O)N(C)[C@@H](C3CCCC3)C(=O)N(C)[C@H](C(=O)N3CCOCC3)CC(=O)N(C)[C@@H](CC(C)C)C(=O)N[C@@H]([C@@H](C)CC)C(=O)N(C)CC(=O)N(C)[C@H]3C[C@@H](C)CCN(C3=O)[C@@H](Cc3ccc(C(F)(F)F)cc3)C(=O)N(C)CC(=O)N[C@@H](CCc3cc(F)c(C(F)(F)F)c(F)c3)C(=O)N2C1 [PP1025] | 0.056 | B (a compound having 3 or more and less than 10 is denoted as B) | C (A compound having a KD ratio of 0.1 or more and less than 3 is denoted as C) | – |
| CCO[C@@H]1C[C@H]2C(=O)NC3(CCC3)C(=O)N(C)[C@@H](C3CCCC3)C(=O)N[C@H](C(=O)N(C)C)CC(=O)N(C)[C@@H](CC)C(=O)N[C@@H]([C@@H](C)CC)C(=O)N(C)CC(=O)N(C)[C@H]3C/C=C\CCN(C3=O)[C@@H](Cc3ccc(C(F)(F)F)cc3)C(=O)N(C)CC(=O)N[C@@H](CCc3cc(F)c(C(F)(F)F)c(F)c3)C(=O)N2C1 [PP1094] | 0.84 | B (a compound having 3 or more and less than 10 is denoted as B) | A (a compound having 10 or more and less than 20 is denoted as A) | – |
| CCO[C@@H]1C[C@H]2C(=O)NC3(CCC3)C(=O)N(C)[C@@H](C3CCCC3)C(=O)N(C)[C@H](C(=O)N(C)C)CC(=O)N(C)[C@@H](CC)C(=O)N[C@@H]([C@@H](C)CC)C(=O)N3CC[C@H]3C(=O)N(C)[C@H]3C/C=C\CCN(C3=O)[C@@H](Cc3ccc(C(F)(F)F)cc3)C(=O)N(C)CC(=O)N[C@@H](CCc3cc(F)c(C(F)(F)F)c(F)c3)C(=O)N2C1 [PP0984] | 0.28 | A (a compound having 10 or more and less than 20 is denoted as A) | A (a compound having 10 or more and less than 20 is denoted as A) | – |
| CCCN1C(=O)[C@@H]2CCN2C(=O)[C@H](C)N(C)C(=O)[C@H]([C@@H](C)CC)NC(=O)[C@H](C2CCC2)N(C)C(=O)C[C@@H](C(=O)N2CCOCC2)N(C)C(=O)[C@H](C2CCCC2)N(C)C(=O)C2(CCCC2)NC(=O)[C@@H]2CCCN2C(=O)[C@H](CCc2ccc(C(F)(F)F)c(Cl)c2)NC(=O)CN(C)C(=O)[C@@H]1Cc1ccc(C(F)(F)F)cc1 [PP0192] ([NMeGly(cBu)]I[NMeA][Aze][NPrPhe(4-CF3)][Sar][hPhe(3-Cl-4-CF3)]P[Ac5c][NMeGly(cPent)][NMeD]-Morpholide; lactam N-11) | – | B (a compound having 3 or more and less than 10 is denoted as B) | C (A compound having a KD ratio of 0.1 or more and less than 3 is denoted as C) | Kd [2, 4]: 0.19 nM |
